Where two headings read alike, the source gives them in different places.
Assays:
[1] = biological target: Mcl-1 protein (UniProtKB primary accession number: Q07820) (Homo sapiens, UniProt Q07820); assay: Inhibition of Mcl-1 by fluorescence polarisation, Method 1; type: binding; settings: read-out: IC50 (M) Mcl-1 FP
Outline: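 Binding was measured as fluorescence polarisation of a fluorescein-labelled ligand (1 nM) displaced from Mcl-1 (5 nM), both final. Compounds ran as 11-point series with final DMSO at 5%.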

[2] = test system: H929 multiple myeloma tumour line; assay: In vitro cytotoxicity, Microculture Tetrazolium Assay; type: cell-based; settings: H929 cells, 48 hours exposure, read-out: IC50 (μM) MTT H929
Description: The cytotoxicity studies were carried out on the H929 multiple myeloma tumour line.
The cells are distributed onto microplates and exposed to the test compounds for 48 hours.

[3] = fluorescence polarisation test, Method 2 values are underlined in the patent (underlining not visible here)
[4] = Homo sapiens, NCI-H929, 48 h, MTT
[5] = fluorescence polarisation, Method 1, or Method 2

Mcl-1 protein, sequence (Q07820 whole entry): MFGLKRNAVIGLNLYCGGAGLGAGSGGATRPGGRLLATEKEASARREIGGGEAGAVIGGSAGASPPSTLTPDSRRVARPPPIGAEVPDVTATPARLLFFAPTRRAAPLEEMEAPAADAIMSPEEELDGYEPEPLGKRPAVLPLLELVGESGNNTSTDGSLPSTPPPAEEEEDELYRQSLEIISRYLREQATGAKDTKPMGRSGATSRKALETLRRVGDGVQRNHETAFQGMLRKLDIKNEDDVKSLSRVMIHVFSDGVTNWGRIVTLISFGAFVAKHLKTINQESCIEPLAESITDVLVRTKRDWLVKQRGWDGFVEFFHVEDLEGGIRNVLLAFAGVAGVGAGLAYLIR

SMILES | IC50 [1, 3] [M] | IC50 [1, 5] [M] | IC50 [2, 4] [µM] | other results
COc1ccccc1CC(Oc1ncnc2sc(-c3ccc(F)o3)c(-c3ccc(OCCN(C)C)c(Cl)c3C)c12)C(=O)O [Example 199, (2R)-2-{[(5Sa)-5-{3-chloro-4-[2-(dimethylamino)ethoxy]-2-methylphenyl}-6-(5-fluorofuran-2-yl)thieno[2,3-d]pyrimidin-4-yl]oxy}-3-(2-methoxyphenyl)propanoic acid] | 6.6e-09 | – | 0.28 | –
Cc1c(-c2c(-c3ccco3)sc3ncnc(O[C@H](Cc4ccccc4OCc4ccco4)C(=O)O)c23)ccc(OCCN2CCN(C)CC2)c1Cl [Example 244, (2R)-2-{[(5Sa)-5-{3-chloro-2-methyl-4-[2-(4-methylpiperazin-1-yl)ethoxy]phenyl}-6-(furan-2-yl)thieno[2,3-d]pyrimidin-4-yl]oxy}-3-[2-(furan-2-ylmethoxy)phenyl]propanoic acid] | 8.6e-09 | – | – | IC50 ([2]; MTT): 0.205 µM
COCCCn1nccc1COc1ccccc1CC(Oc1ncnc2sc(-c3ccc(F)cc3)c(-c3ccc(OCCN4CCN(C)CC4)c(Cl)c3C)c12)C(=O)O [Example 86, (2R)-2-{[(5Sa)-5-{3-chloro-2-methyl-4-[2-(4-methylpiperazin-1-yl)ethoxy]phenyl}-6-(4-fluorophenyl)thieno[2,3-d]pyrimidin-4-yl]oxy}-3-(2-{[1-(3-methoxypropyl)-1H-pyrazol-5-yl]methoxy}phenyl)propanoic acid] | 2.9e-09 | – | 0.063 | –
Cc1c(-c2c(-c3ccco3)sc3ncnc(OC(Cc4ccccc4OCc4cncs4)C(=O)O)c23)ccc(OCCN2CCN(C)CC2)c1Cl [Example 278, (2R)-2-{[(5Sa)-5-{3-chloro-2-methyl-4-[2-(4-methylpiperazin-1-yl)ethoxy]phenyl}-6-(furan-2-yl)thieno[2,3-d]pyrimidin-4-yl]oxy}-3-[2-(1,3-thiazol-5-ylmethoxy)phenyl]propanoic acid] | 6.7e-09 | – | 0.202 | –
COc1ccccc1-c1nccc(COc2ccccc2C[C@@H](Oc2ncnc3sc(-c4ccc(F)cc4)c(-c4ccc(OCCN5CCN(C)CC5)c(Cl)c4OC)c23)C(=O)O)n1 [Example 837, (2R)-2-{[5-{3-chloro-2-methoxy-4-[2-(4-methylpiperazin-1-yl)ethoxy]phenyl}-6-(4-fluorophenyl)thieno[2,3-d]pyrimidin-4-yl]oxy}-3-(2-{[2-(2-methoxyphenyl)pyrimidin-4-yl]methoxy}phenyl)propanoic acid] | – | – | – | IC50 ([1]; fluorescence polarisation test, Method 1, or Method 2 where the value is underlined (underlining not visible)): 2.35e-09 M; IC50 ([2]; Homo sapiens, NCI-H929, 48 h, cell viability): 0.003 µM
COc1cnc(COc2ccccc2CC(Oc2ncnc3sc(-c4ccco4)c(-c4ccc(OCCN5CCN(C)CC5)c(Cl)c4C)c23)C(=O)O)cn1 [Example 270, (2R)-2-{[(5Sa)-5-{3-chloro-2-methyl-4-[2-(4-methylpiperazin-1-yl)ethoxy]phenyl}-6-(furan-2-yl)thieno[2,3-d]pyrimidin-4-yl]oxy}-3-{2-[(5-methoxypyrazin-2-yl)methoxy]phenyl}propanoic acid] | 1.2e-08 | – | 0.068 | –
COc1ccccc1CC(Oc1ncnc2sc(-c3cccc(OCc4ccncc4)c3)c(-c3ccc(OCCN4CCN(C)CC4)c(Cl)c3C)c12)C(=O)O [Example 587, (2R)-2-[((5Sa)-5-{3-chloro-2-methyl-4-[2-(4-methylpiperazin-1-yl)ethoxy]phenyl}-6-[3-(pyridin-4-ylmethoxy)phenyl]thieno[2,3-d]pyrimidin-4-yl)oxy]-3-(2-methoxyphenyl)propanoic acid] | – | 2.6e-08 | 0.539 | –
CCc1ccc(-c2sc3ncnc(OC(Cc4ccccc4OC)C(=O)O)c3c2-c2ccc(OCCN3CCN(C)CC3)c(Cl)c2C)o1 [Example 543, (2R)-2-{[(5Sa)-5-{3-chloro-2-methyl-4-[2-(4-methylpiperazin-1-yl)ethoxy]phenyl}-6-(5-ethylfuran-2-yl)thieno[2,3-d]pyrimidin-4-yl]oxy}-3-(2-methoxyphenyl)propanoic acid] | – | 4.2e-08 | 0.766 | –
Cc1c(-c2c(-c3ccc(F)o3)sc3ncnc(OC(Cc4ccccc4OCc4ccnn4C4CCCC4)C(=O)O)c23)ccc(OCCN2CCN(C)CC2)c1Cl [Example 183, (2R)-2-{[(5Sa)-5-{3-chloro-2-methyl-4-[2-(4-methylpiperazin-1-yl)ethoxy]phenyl}-6-(5-fluorofuran-2-yl)thieno[2,3-d]pyrimidin-4-yl]oxy}-3-{2-[(1-cyclopentyl-1H-pyrazol-5-yl)methoxy]phenyl}propanoic acid] | 5.7e-09 | – | 0.012 | –
Cc1c(-c2c(-c3ccc(F)o3)sc3ncnc(OC(Cc4ccccc4OCc4cnccn4)C(=O)O)c23)ccc(OCCN(C)C)c1Cl [Example 206, (2R)-2-{[(5Sa)-5-{3-chloro-4-[2-(dimethylamino)ethoxy]-2-methylphenyl}-6-(5-fluorofuran-2-yl)thieno[2,3-d]pyrimidin-4-yl]oxy}-3-[2-(pyrazin-2-ylmethoxy)phenyl]propanoic acid] | 8e-09 | – | 0.135 | –

Further lines, with some results ahead:

IC50 [1, 3] [M] | IC50 [1, 5] [M] | SMILES | IC50 [2, 4] [µM] | other results
– | 3e-09 | COCCOc1ccccc1-c1nccc(COc2ccccc2CC(Oc2ncnc3sc(-c4ccc(F)cc4)c(-c4ccc(OCCN(C)C)c(Cl)c4C)c23)C(=O)O)n1 [Example 753, (2R)-2-{[(5Sa)-5-{3-chloro-4-[2-(dimethylamino)ethoxy]-2-methylphenyl}-6-(4-fluorophenyl)thieno[2,3-d]pyrimidin-4-yl]oxy}-3-[2-({2-[2-(2-methoxyethoxy)phenyl]pyrimidin-4-yl}methoxy)phenyl]propanoic acid] | 0.005 | –
– | 3.2e-08 | Cc1c(-c2c(-c3cccc(F)c3)sc3ncnc(OC(Cc4ccccc4OC(C)C)C(=O)O)c23)ccc(OCCN2CCN(C)CC2)c1Cl [Example 709, (2R)-2-{[(5Sa)-5-{3-chloro-2-methyl-4-[2-(4-methylpiperazin-1-yl)ethoxy]phenyl}-6-(3-fluorophenyl)thieno[2,3-d]pyrimidin-4-yl]oxy}-3-[2-(propan-2-yloxy)phenyl]propanoic acid] | 0.518 | –
– | 1.01e-09 | COc1ccc(COc2ccc(-c3sc4ncnc(OC(Cc5ccccc5OCc5ccnc(-c6ccccc6OC)n5)C(=O)O)c4c3-c3ccc(OCCN4CCN(C)CC4)c(Cl)c3C)cc2)cc1 [Example 770, (2R)-2-[((5Sa)-5-{3-chloro-2-methyl-4-[2-(4-methylpiperazin-1-yl)ethoxy]phenyl}-6-{4-[(4-methoxybenzyl)oxy]phenyl}thieno[2,3-d]pyrimidin-4-yl)oxy]-3-(2-{[2-(2-methoxyphenyl)pyrimidin-4-yl]methoxy}phenyl)propanoic acid] | 0.01 | –
– | 4.7e-09 | CCn1nccc1COc1ccccc1CC(Oc1ncnc2sc(-c3ccc(F)cc3)c(-c3cnc(OCCN4CCN(C)CC4)c(Cl)c3C)c12)C(=O)O [Example 652, (2R)-2-{[(5Ra)-5-{5-chloro-4-methyl-6-[2-(4-methylpiperazin-1-yl)ethoxy]pyridin-3-yl}-6-(4-fluorophenyl)thieno[2,3-d]pyrimidin-4-yl]oxy}-3-{2-[(1-ethyl-1H-pyrazol-5-yl)methoxy]phenyl}propanoic acid] | 0.059 | –
– | 1.1e-08 | CCCCn1nccc1COc1ccccc1CC(Oc1ncnc2sc(-c3ccc(OCCOC)nc3)c(-c3ccc(OCCN4CCN(C)CC4)c(Cl)c3C)c12)C(=O)O [Example 622, (2R)-3-{2-[(1-butyl-1H-pyrazol-5-yl)methoxy]phenyl}-2-[((5Sa)-5-{3-chloro-2-methyl-4-[2-(4-methylpiperazin-1-yl)ethoxy]phenyl}-6-[6-(2-methoxyethoxy)pyridin-3-yl]thieno[2,3-d]pyrimidin-4-yl)oxy]propanoic acid] | 0.109 | –
